The source of these data is publication PMC10461969 (bioRxiv, 2023).

Read-outs that look alike come from different tables or passages of the source.

Assay [1] deals with T1, SIRT5 (Homo sapiens, UniProt Q9NXA8).
T1 sequence (Q9NXA8 37-310): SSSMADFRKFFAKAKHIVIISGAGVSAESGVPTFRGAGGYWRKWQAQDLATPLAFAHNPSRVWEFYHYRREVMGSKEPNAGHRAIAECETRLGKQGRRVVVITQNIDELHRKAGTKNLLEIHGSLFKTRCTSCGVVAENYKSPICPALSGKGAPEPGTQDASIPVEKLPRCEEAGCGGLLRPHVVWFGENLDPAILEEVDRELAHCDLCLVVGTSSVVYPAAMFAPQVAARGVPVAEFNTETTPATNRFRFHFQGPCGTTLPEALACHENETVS
The assay can be described thus: SIRTify in live. The assay is classed as cell-based. The conditions noted are these: intact HepG2-LgBiT cells with furimazine.

Assay [2] concerns the target T1, SIRT5. The assay can be described thus: SIRTify in live. The conditions noted are these: intact KG1a-LgBiT cells with furimazine. It counts as cell-based.
Assay [3] has as its target T2, Sirt5 (Danio rerio, UniProt Q6DHI5).
T2 sequence (Q6DHI5 33-305): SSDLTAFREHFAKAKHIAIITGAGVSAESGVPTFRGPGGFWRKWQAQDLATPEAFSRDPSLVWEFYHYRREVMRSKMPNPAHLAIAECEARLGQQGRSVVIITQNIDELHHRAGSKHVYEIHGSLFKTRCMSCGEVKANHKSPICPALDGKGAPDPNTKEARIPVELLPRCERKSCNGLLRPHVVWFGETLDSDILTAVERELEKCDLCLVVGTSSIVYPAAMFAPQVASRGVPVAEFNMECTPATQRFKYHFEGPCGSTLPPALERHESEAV
The assay can be described thus: Endogenous Sirt5 desuccinylation activity in zebrafish embryos. The conditions noted are these: embryos injected with LgBiT and peptide; endurazine. The assay is classed as in vivo, zebrafish (Danio rerio).

For assay [4], the target named is T1, SIRT5. The conditions noted are these: read-out: IC50 Pub., Succinyl; cited from earlier work.
For assay [5], the target named is T1, SIRT5. The assay can be described thus: SIRTify cell-free inhibitor assay, SIRT5. The conditions noted are these: for IC50: 250 μM NAD+.

As to “H2N-VSGWRLF(KGlut)(KGlut)ISRRRR-OH [p86-Glutaryl8,9-R4]”, the “luminescence versus peptide concentration (cell permeability)” value in assay [1] and in assay [2] was “much lower signal” each time.

Consider “H2N-VSGWRLF(KSuc)(KSuc)ISRRRR-OH [p86-Succinyl8,9-R4]”, for which the “luminescence versus peptide concentration (cell permeability)” value in assay [1] and in assay [2] was “much lower signal” each time. The “luminescence over 90 minutes (endogenous desuccinylation)” value in assay [3] is on record as “slight increase in luminescence”.

`CC[C@H](C)[C@H](NC(=O)[C@H](CCCCN)NC(=O)[C@H](CCCCN)NC(=O)[C@H](Cc1ccccc1)NC(=O)[C@H](CC(C)C)NC(=O)[C@H](CCCNC(=N)N)NC(=O)[C@H](Cc1c[nH]c2ccccc12)NC(=O)CNC(=O)[C@H](CO)NC(=O)[C@@H](N)C(C)C)C(=O)N[C@@H](CO)C(=O)N[C@@H](CCCNC(=N)N)C(=O)N[C@@H](CCCNC(=N)N)C(=O)N[C@@H](CCCNC(=N)N)C(=O)N[C@@H](CCCNC(=N)N)C(=O)O` [p86-R4]: the “luminescence versus peptide concentration (cell permeability)” value in assay [1] and in assay [2] was “directly proportional to p86-R4 concentration” in each case.

In general, IC50 refers to the point on the concentration scale where inhibition reaches its midpoint. In the case of `O=C(O)CCNC(=S)NCCCC[C@H](NS(=O)(=O)c1cccc(F)c1)C(=O)N[C@@H](Cc1c[nH]c2ccccc12)C(=O)NC1CCC1`, the IC50 is 110 nM in assay [4], 47 ± 2 nM in assay [5] (Glutaryl substrate (deglutarylase activity)) and 102 ± 8 nM in assay [5] (Succinyl substrate (desuccinylase activity)). In assay [5], the “lower IC50 for deglutarylase activity compared to desuccinylase activity” value is “approximately 3 fold”.
